Test results taken from US11613531B2, “Inhibitors of RHO associated coiled-coil containing protein kinase” (Kadmon Corporation, LLC, priority 2017, dated 2023).

What was measured:
[1] = biological target: Recombinant ROCK2 (amino acids 1-552) (Homo sapiens (Human), UniProt O75116); assay: Z′-Lyte kinase assay, ROCK2; type: biochemical; details: 9 points 2-fold serial dilution
In short: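 IC50s derive from nonlinear curve fits over a 9-point, 2-fold dilution series, with single-point inhibition at 1 μM expressed relative to DMSO. Activity of truncated human ROCK1 (residues 1-535) and ROCK2 (residues 1-552) measured with the Z′-Lyte kinase format.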

[2] = system: ppMlc (T18/S19) levels in A7R5 cells; assay: A7R5 in-cell ELISA (pMLC); type: cell-based, Rat; details: Rattus norvegicus, A7R5, A7R5 cells
In short: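 Cellular IC50 came from a nonlinear regression fit of ppMlc (T18/S19) signal, read by colorimetric in-cell ELISA on fixed cells. Rat A7R5 aortic smooth muscle cells had been exposed for 90 min to compounds in 9-point 2-fold serial dilution, 24 h after seeding.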

[3] = system: human ACTA2 gene promoter luciferase reporter in NIH3T3 cells; assay: NIH3T3 Acta2-promoter driven-luciferase assay; type: cell-based; details: NIH3T3, 24 h, NIH3T3 cells, plus TGFβ1 for 24 hr; read-out: NIH3T3 Acta2-luc, IC50
In short: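 NIH3T3 cells stably carrying a human ACTA2 promoter (−1000-1 bp)-luciferase reporter, grown to confluence, treated 24 hr with compound plus TGFβ1 at 9-point serial dilution. Luciferase read after lysis; IC50 by nonlinear regression.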

[4] = system: phosphorylation of ROCK targets MLC and MYPT1 in A7R5 cells; assay: Western blot of A7R5 cell lysates (ppMlc, MYPT1); type: cell-based, Rat; details: 110 nM, 90 min
Description: FIG. 1c. Western blot of A7R5 cell lysates to visualize ppMlc (T18/S19) levels following treatment with the compound of Example 192 (“Example 192”) for 90 min. A7R5 cells were treated with the compound and ppMlc (T18/S19) levels were visualized by western blotting.
A7R5 cells were treated with the compound of Example 192 for 90 min and ppMlc (T18/S19) levels were visualized by western blotting.

[5] = system: Bleomycin induced lung fibrosis in mice; assay: Therapeutic bleomycin induced lung fibrosis model; type: in vivo
Description: FIG. 10a. ROCK inhibitor is therapeutically active in a mouse model of pulmonary fibrosis. Representative images of lung sections stained with Masson's trichrome to visualized fibrosis in the lungs of mice following therapeutic treatment with ROCK inhibitor in the bleomycin-induced lung injury model.
FIG. 10b. Quantitation of the decrease in the fibrosis index in the histopathological analysis of the images from ROCK inhibitor and vehicle treated mice in the bleomycin-induced lung injury model.
FIG. 10c. ROCK target engagement analysis in the lung tissue from the bleomycin-induced pulmonary fibrosis model.
Therapeutic Efficacy of Compounds in Bleomycin Induced Lung Fibrosis in Mice
Male C57B/L6 mice were housed for acclimation for no less than 7 days. After acclimation period, animals were randomly assigned to treatment groups. On day 0, mice were anesthetized with 5% isoflurane by inhalation for 10-15 mins and then suspended by their front teeth on a wire attached to a fixed animal operating plate. 50 μL of saline or bleomycin solution was administered via intratracheal instillation. […]
The activity of ROCK inhibitors in attenuating pulmonary fibrosis in a therapeutic dosing setting was assessed in a bleomycin-induced model, following intratracheal bleomycin installation to induce lung tissue damage and consequent fibrosis of the lung. […]
The improvement in the overall lung fibrosis was quantitated for each animal in the control and treatment groups. […]
In addition to the determination of the therapeutic activity of ROCK inhibition in the pulmonary fibrosis model, target engagement and the extent of ROCK inhibition in the lung of drug treated animals were also determined. Protein extracts were prepared from the snap frozen lung samples and separated on SDS-PAGE and analyzed by Western blotting. ROCK kinase direct target, phosphorylated myosin-binding subunit of myosin phosphatase (MYPT, pT853) and a ROCK pathway regulated protein CCN1 expression levels were detected. […] Western blot results were quantitated by the Image J densitometry program. […]

[6] = bleomycin treated mouse lungs, western blot

Chain of Recombinant ROCK2 (amino acids 1-552) (O75116 1-552): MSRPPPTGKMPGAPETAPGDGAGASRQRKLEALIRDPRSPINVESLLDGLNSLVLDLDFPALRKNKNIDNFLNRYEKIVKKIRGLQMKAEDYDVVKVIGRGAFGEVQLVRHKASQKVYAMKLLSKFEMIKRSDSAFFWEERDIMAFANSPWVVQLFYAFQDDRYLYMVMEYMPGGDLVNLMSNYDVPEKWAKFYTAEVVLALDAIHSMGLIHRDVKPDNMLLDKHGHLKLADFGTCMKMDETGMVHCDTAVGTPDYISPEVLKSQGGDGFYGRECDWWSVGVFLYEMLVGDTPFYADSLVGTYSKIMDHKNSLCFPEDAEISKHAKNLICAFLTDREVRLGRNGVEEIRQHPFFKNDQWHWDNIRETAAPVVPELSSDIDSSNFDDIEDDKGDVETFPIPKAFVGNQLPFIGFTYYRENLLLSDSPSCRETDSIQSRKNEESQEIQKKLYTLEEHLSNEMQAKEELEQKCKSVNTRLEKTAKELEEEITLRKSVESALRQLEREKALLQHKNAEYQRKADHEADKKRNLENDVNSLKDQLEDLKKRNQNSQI

Compound: Clc1cnc(N2C3CCC2CNC3)nc1Nc1ccc2[nH]ncc2c1 [Example 192, N-(2-(3,8-diazabicyclo[3.2.1]octan-8-yl)-5-chloropyrimidin-4-yl)-1H-indazol-5-amine]
- IC50 [1]: 12 nM
- inhibition at 1 µM ([2]; 1 μM compound, read-out: pMLC % inh A7R5 @ [conc]): 53.5%
- IC50 ([2]; ppMlc (T18/S19)): 98 nM
- IC50 [3]: 189 nM
- phosphorylation of ROCK targets MLC and MYPT1 [4]: efficiently blocked
- CCN1 total protein levels in lung [5, 6]: reduction
- phosphorylated MYPT (pT853) levels in lung [5, 6]: reduction
- collagen amounts in the lungs ([5]; mice, therapeutic dosing from day 7, Masson's trichrome-stained sections): significantly lower
